What follows are compounds tested against T1, Dimer of Gag-Pol polyprotein [489-587] (Human immunodeficiency virus 1, UniProt P12497) (assay: Protease Inhibition Assay). Conditions: not given.
T1 construct: 489-587
Experimental: Enzymatic activity was measured by following cleavage of the substrate H-Lys-Ala-Arg-Val-Leu-pNph-Glu-Ala-Nle-NH2. Products of the cleavage reaction were quantified by HPLC detection

Row | SMILES | Ki [nM]
1 | COc1ccc(CN[C@@H](C(=O)N[C@H]2c3ccccc3C[C@H]2O)[C@H](O)[C@H](Cc2ccccc2)NC(=O)[C@@H](NC(=O)CCc2ccc(OC)c(O)c2)C(C)(C)C)cc1 [(2R,3R,4S)-3-hydroxy-N-[(1S,2R)-2-hydroxy-2,3-dihydro-1H-inden-1-yl]-4-[(2S)-2-[3-(3-hydroxy-4-methoxyphenyl)propanamido]-3,3-dimethylbutanamido]-2-{[(4-methoxyphenyl)methyl]amino}-5-phenylpentanamide] | 7.7
2 | COc1ccc(CN[C@@H](C(=O)N[C@H]2c3ccccc3C[C@H]2O)[C@H](O)[C@H](Cc2ccccc2)NC(=O)[C@@H](NC(=O)CSc2nncn2C)C(C)(C)C)cc1 [(2R,3R,4S)-4-[(2S)-3,3-dimethyl-2-{2-[(4-methyl-4H-1,2,4-triazol-3-yl)sulfanyl]acetamido}butanamido]-3-hydroxy-N-[(1S,2R)-2-hydroxy-2,3-dihydro-1H-inden-1-yl]-2-{[(4-methoxyphenyl)methyl]amino}-5-phenylpentanamide] | 5.8
3 | COc1ccc(CN[C@@H](C(=O)N[C@H]2c3ccccc3C[C@H]2O)[C@H](O)[C@H](Cc2ccccc2)NC(=O)[C@@H](NC(=O)/C=C/c2ccc(OC)c(O)c2)C(C)(C)C)cc1 [(2R,3R,4S)-3-hydroxy-N-[(1S,2R)-2-hydroxy-2,3-dihydro-1H-inden-1-yl]-4-[(2S)-2-[(2E)-3-(3-hydroxy-4-methoxyphenyl)prop-2-enamido]-3,3-dimethylbutanamido]-2-{[(4-methoxyphenyl)methyl]amino}-5-phenylpentanamide] | 5.8
4 | COc1ccc(CN[C@@H](C(=O)N[C@H]2c3ccccc3C[C@H]2O)[C@H](O)[C@H](Cc2ccccc2)NC(=O)[C@@H](NC(=O)/C=C/c2ccc(OC)cc2O)C(C)(C)C)cc1 [(2R,3R,4S)-3-hydroxy-N-[(1S,2R)-2-hydroxy-2,3-dihydro-1H-inden-1-yl]-4-[(2S)-2-[(2E)-3-(2-hydroxy-4-methoxyphenyl)prop-2-enamido]-3,3-dimethylbutanamido]-2-{[(4-methoxyphenyl)methyl]amino}-5-phenylpentanamide] | 18
5 | CC(C)(C)[C@H](NC(=O)OCc1ccccc1)C(=O)N[C@@H](Cc1ccccc1)[C@@H](O)[C@@H](NCc1ccc(CNC(=O)CCc2nc3ccccc3[nH]2)cc1)C(=O)N[C@H]1c2ccccc2C[C@H]1O [benzyl N-[(1S)-1-{[(2S,3R,4R)-4-{[(4-{[3-(1H-1,3-benzodiazol-2-yl)propanamido]methyl}phenyl)methyl]amino}-3-hydroxy-4-{[(1S,2R)-2-hydroxy-2,3-dihydro-1H-inden-1-yl]carbamoyl}-1-phenylbutan-2-yl]carbamoyl}-2,2-dimethylpropyl]carbamate] | 4.1
6 | COc1ccc(CN[C@@H](C(=O)N[C@H]2c3ccccc3C[C@H]2O)[C@H](O)[C@H](Cc2ccccc2)NC(=O)[C@@H](NC(=O)CCc2ccccc2O)C(C)(C)C)cc1 [(2R,3R,4S)-3-hydroxy-N-[(1S,2R)-2-hydroxy-2,3-dihydro-1H-inden-1-yl]-4-[(2S)-2-[3-(2-hydroxyphenyl)propanamido]-3,3-dimethylbutanamido]-2-{[(4-methoxyphenyl)methyl]amino}-5-phenylpentanamide] | 13
7 | COc1ccc(CN[C@@H](C(=O)N[C@H]2c3ccccc3C[C@H]2O)[C@H](O)[C@H](Cc2ccccc2)NC(=O)[C@@H](NC(=O)OC(C)(C)C)C(C)(C)C)cc1 [tert-butyl N-[(1S)-1-{[(2S,3R,4R)-3-hydroxy-4-{[(1S,2R)-2-hydroxy-2,3-dihydro-1H-inden-1-yl]carbamoyl}-4-{[(4-methoxyphenyl)methyl]amino}-1-phenylbutan-2-yl]carbamoyl}-2,2-dimethylpropyl]carbamate] | 210
8 | COc1ccc(CN[C@@H](C(=O)N[C@H]2c3ccccc3C[C@H]2O)[C@H](O)[C@H](Cc2ccccc2)NC(=O)[C@@H](NC(=O)CSc2nnc(C)s2)C(C)(C)C)cc1 [(2R,3R,4S)-4-[(2S)-3,3-dimethyl-2-{2-[(5-methyl-1,3,4-thiadiazol-2-yl)sulfanyl]acetamido}butanamido]-3-hydroxy-N-[(1S,2R)-2-hydroxy-2,3-dihydro-1H-inden-1-yl]-2-{[(4-methoxyphenyl)methyl]amino}-5-phenylpentanamide] | 8

Same assay, conditions: pH 6.25; 37 °C

Row | SMILES | Ki [nM]
9 | CCOc1ccc(CN[C@@H](C(=O)N[C@H]2c3ccccc3C[C@H]2O)[C@H](O)[C@H](Cc2ccccc2)NC(=O)OC(C)(C)C)cc1 [tert-butyl N-[(2S,3R,4R)-4-{[(4-ethoxyphenyl)methyl]amino}-3-hydroxy-4-{[(1S,2R)-2-hydroxy-2,3-dihydro-1H-inden-1-yl]carbamoyl}-1-phenylbutan-2-yl]carbamate] | 92
10 | COc1ccc(CN[C@@H](C(=O)N[C@H]2c3ccccc3C[C@H]2O)[C@H](O)[C@H](Cc2ccccc2)NC(=O)C(CC(=O)O)NC(=O)OCc2ccccc2)cc1 (stereo partly drawn) [3-{[(benzyloxy)carbonyl]amino}-3-{[(2S,3R,4R)-3-hydroxy-4-{[(1S,2R)-2-hydroxy-2,3-dihydro-1H-inden-1-yl]carbamoyl}-4-{[(4-methoxyphenyl)methyl]amino}-1-phenylbutan-2-yl]carbamoyl}propanoic acid] | 22
11 | COc1ccc(CN[C@@H](C(=O)N[C@H](C(=O)NCc2nc3ccccc3[nH]2)C(C)C)[C@H](O)[C@H](Cc2ccccc2)NC(=O)OC(C)(C)C)cc1 [tert-butyl N-[(2S,3R,4R)-4-{[(1S)-1-[(1H-1,3-benzodiazol-2-ylmethyl)carbamoyl]-2-methylpropyl]carbamoyl}-3-hydroxy-4-{[(4-methoxyphenyl)methyl]amino}-1-phenylbutan-2-yl]carbamate] | 7.7
12 | CC(C)(C)OC(=O)N[C@@H](Cc1ccccc1)[C@@H](O)[C@@H](NCc1ccc(OCCO)cc1)C(=O)NCc1ccccc1 [tert-butyl N-[(2S,3R,4R)-4-(benzylcarbamoyl)-3-hydroxy-4-({[4-(2-hydroxyethoxy)phenyl]methyl}amino)-1-phenylbutan-2-yl]carbamate] | 1200
13 | COc1ccc(CN[C@@H](C(=O)N[C@H]2c3ccccc3C[C@H]2O)[C@H](O)[C@H](Cc2ccccc2)NC(=O)OC(C)(C)C)cc1 [(2R,3S,4S,1 S,2 R)-4-[[(1,1-Dimethylethoxy0carbonyl]amino]-3-hydroxy-2-[(4-methoxybenzyl)amino]-5-phenylpentan(2-hydroxy-1 indanyl)amide] | 65
14 | COc1ccc(CN[C@@H](C(=O)N[C@H]2c3ccccc3C[C@H]2O)[C@H](O)[C@H](Cc2ccccc2)NC(=O)C(CC(N)=O)NC(=O)OCc2ccccc2)cc1 (stereo partly drawn) [benzyl N-(2-carbamoyl-1-{[(2S,3R,4R)-3-hydroxy-4-{[(1S,2R)-2-hydroxy-2,3-dihydro-1H-inden-1-yl]carbamoyl}-4-{[(4-methoxyphenyl)methyl]amino}-1-phenylbutan-2-yl]carbamoyl}ethyl)carbamate] | 15
15 | CC(C)(C)OC(=O)N[C@@H](Cc1ccccc1)[C@@H](O)[C@@H](NCc1ccc(CNC(=O)CCc2nc3ccccc3[nH]2)cc1)C(=O)NCc1ccccc1 [tert-butyl N-[(2S,3R,4R)-4-{[(4-{[3-(1H-1,3-benzodiazol-2-yl)propanamido]methyl}phenyl)methyl]amino}-4-(benzylcarbamoyl)-3-hydroxy-1-phenylbutan-2-yl]carbamate] | 680
16 | COc1ccc(CN[C@@H](C(=O)N[C@H]2c3ccccc3C[C@H]2O)[C@H](O)[C@H](Cc2ccccc2)NC(=O)C(NC(=O)OCc2ccccc2)C(C)C)cc1 (stereo partly drawn) [benzyl N-(1-{[(2S,3R,4R)-3-hydroxy-4-{[(1S,2R)-2-hydroxy-2,3-dihydro-1H-inden-1-yl]carbamoyl}-4-{[(4-methoxyphenyl)methyl]amino}-1-phenylbutan-2-yl]carbamoyl}-2-methylpropyl)carbamate] | 8.1
17 | CC(C)(C)OC(=O)N[C@@H](Cc1ccccc1)[C@@H](O)[C@@H](NCc1ccccc1)C(=O)NCc1ccccc1 [tert-butyl N-[(2S,3R,4R)-4-(benzylamino)-4-(benzylcarbamoyl)-3-hydroxy-1-phenylbutan-2-yl]carbamate] | 2500
18 | CC(C)(C)OC(=O)N[C@@H](Cc1ccccc1)[C@@H](O)[C@@H](NCc1ccc(CNC(=O)Nc2ccccc2)cc1)C(=O)N[C@H]1c2ccccc2C[C@H]1O [tert-butyl N-[(2S,3R,4R)-3-hydroxy-4-{[(1S,2R)-2-hydroxy-2,3-dihydro-1H-inden-1-yl]carbamoyl}-1-phenyl-4-{[(4-{[(phenylcarbamoyl)amino]methyl}phenyl)methyl]amino}butan-2-yl]carbamate] | 33
19 | CCC(C)C(NC(=O)OCc1ccccc1)C(=O)N[C@@H](Cc1ccccc1)[C@@H](O)[C@@H](NCc1ccc(OC)cc1)C(=O)N[C@H]1c2ccccc2C[C@H]1O (stereo partly drawn) [benzyl N-(1-{[(2S,3R,4R)-3-hydroxy-4-{[(1S,2R)-2-hydroxy-2,3-dihydro-1H-inden-1-yl]carbamoyl}-4-{[(4-methoxyphenyl)methyl]amino}-1-phenylbutan-2-yl]carbamoyl}-2-methylbutyl)carbamate] | 8.2
20 | CC(C)(C)OC(=O)N[C@@H](Cc1ccccc1)[C@@H](O)[C@@H](NCc1ccc(OCCO)cc1)C(=O)N[C@H]1c2ccccc2C[C@H]1O [tert-butyl N-[(2S,3R,4R)-3-hydroxy-4-{[(1S,2R)-2-hydroxy-2,3-dihydro-1H-inden-1-yl]carbamoyl}-4-({[4-(2-hydroxyethoxy)phenyl]methyl}amino)-1-phenylbutan-2-yl]carbamate] | 80
21 | CC(C)(C)OC(=O)N[C@@H](Cc1ccccc1)[C@@H](O)[C@@H](NCc1ccc(OCCN2CCOCC2)cc1)C(=O)N[C@H]1c2ccccc2C[C@H]1O [tert-butyl N-[(2S,3R,4R)-3-hydroxy-4-{[(1S,2R)-2-hydroxy-2,3-dihydro-1H-inden-1-yl]carbamoyl}-4-[({4-[2-(morpholin-4-yl)ethoxy]phenyl}methyl)amino]-1-phenylbutan-2-yl]carbamate] | 130

Reference: BindingDB's records for doi:10.1021/jm9508696 (Sandoz Research Institute, 1996)
